Results reported in ChEMBL document CHEMBL1158021, “Okaramines H and I, new okaramine congeners, from aspergillus aculeatus” (1999).

Test system: Bombyx mori
Assay: Insecticidal activity against third instar larvae of silkworm assessed per gm diet
Assay type: functional

Structure (SMILES)	LD50 [µg]
C=CC(C)(C)N1c2ccccc2[C@]2(O)C[C@@H]3C(=O)N4/C=C\C(C)(C)c5[nH]c6ccccc6c5/C=C\4C(=O)N3[C@H]12 [OKARAMINE A]	8
CO[C@@H]1[C@]2(O)C(=O)N3/C=C\C(C)(C)c4[nH]c5ccccc5c4/C=C\3C(=O)N2[C@]23[C@H](C)C(C)(C)N2c2ccccc2[C@]13O [OKARAMINE B]	0.2
CC(C)=CCN1c2ccccc2[C@]2(O)C[C@@H]3C(=O)N4/C=C\C(C)(C)c5[nH]c6ccccc6c5/C=C\4C(=O)N3[C@H]12 [OKARAMINE H]	>100
CC1(C)/C=C\N2C(=O)[C@H]3C[C@@]4(O)c5ccccc5N[C@H]4N3C(=O)/C2=C/c2c1[nH]c1ccccc21 [OKARAMINE I]	>100
